From PubChem BioAssay (NCI)
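Cultured in 96-well plates, cells were exposed to test compound for 48 hours across five concentrations. GI50 is the concentration that inhibits growth by half. TGI is the concentration that stops growth completely.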

Legend:
Assay in all cases: NCI-60 cell line screen, 48 h
[1] = tested on: NCI-H522 lung
[2] = tested on: SK-MEL-5 melanoma
[3] = tested on: SF-268 CNS
[4] = tested on: SNB-19 CNS
[5] = tested on: SK-MEL-28 melanoma
[6] = tested on: MALME-3M melanoma
[7] = tested on: SR leukemia
[8] = tested on: UACC-257 melanoma
[9] = tested on: HCC-2998 colon
[10] = tested on: HL-60(TB) leukemia
[11] = tested on: HOP-62 NSCLC
[12] = tested on: COLO 205 colon
[13] = tested on: SK-OV-3 ovarian
[14] = tested on: UO-31 renal
[15] = tested on: HCT-15 colon
[16] = tested on: M14 melanoma
[17] = tested on: A498 renal
[18] = tested on: A549 NSCLC
[19] = tested on: OVCAR-8 ovarian
[20] = tested on: K-562 leukemia
[21] = tested on: U251 CNS
[22] = tested on: MDA-MB-435
[23] = tested on: EKVX NSCLC
[24] = tested on: IGROV1 ovarian
[25] = tested on: RPMI-8226 leukemia
[26] = tested on: SNB-75 CNS
[27] = tested on: NCI-H460 lung
[28] = tested on: BT-549 breast
[29] = tested on: SW-620 colon
[30] = tested on: SF-539 CNS
[31] = tested on: HCT-116 colon
[32] = tested on: CAKI-1 renal
[33] = tested on: NCI-H23 lung
[34] = tested on: UACC-62 melanoma
[35] = tested on: CCRF-CEM leukemia
[36] = tested on: SN12C renal
[37] = tested on: OVCAR-5 ovarian
[38] = tested on: HS 578T breast
[39] = tested on: OVCAR-4 ovarian
[40] = tested on: MDA-MB-231 breast
[41] = tested on: KM12 colon
[42] = tested on: ACHN renal
[43] = tested on: DU-145 prostate
[44] = tested on: PC-3 prostate
[45] = tested on: SK-MEL-2 melanoma
[46] = tested on: HOP-92 NSCLC
[47] = tested on: HT29 colon
[48] = tested on: RXF 393 renal
[49] = tested on: TK-10 renal
[50] = tested on: MOLT-4 leukemia
[51] = tested on: SF-295 CNS
[52] = tested on: MCF7 breast
[53] = tested on: OVCAR-3 ovarian
[54] = tested on: 786-0 renal
[55] = tested on: NCI/ADR-RES ovarian
[56] = tested on: LOX IMVI melanoma
[57] = tested on: T-47D breast
[58] = tested on: NCI-H226 lung

NS(=O)(=O)OC[C@H]1C[C@@H](Nc2ccnc3cc(-c4cccc(SC(F)(F)F)c4)nn23)[C@H](O)[C@@H]1O was tested, and the GI50 [1] was 0.0184 µM, the TGI [1] was 0.0363 µM and the GI50 [2] was 0.0133 µM. It also gave a TGI [2] of 0.0278 µM, a GI50 [3] of 0.0265 µM and a TGI [3] of 0.0711 µM. The GI50 [4] was 0.0301 µM, the TGI [4] was 0.0902 µM and the GI50 [5] was 0.0189 µM. It also gave a TGI [5] of 0.065 µM, a GI50 [6] of 0.0275 µM and a TGI [6] of 0.0652 µM. For the same compound, the GI50 [7] was 0.0316 µM, the TGI [7] was 1.05 µM and the GI50 [8] was 0.0278 µM. It also gave a TGI [8] of 0.108 µM, a GI50 [9] of 0.022 µM and a TGI [9] of 0.0442 µM. For the same compound, the GI50 [10] was 0.0332 µM, the TGI [10] was 0.15 µM and the GI50 [11] was 0.0173 µM. The TGI [11] was 0.0489 µM, the GI50 [12] was 0.0229 µM and the TGI [12] was 0.0525 µM. It also gave a GI50 [13] of 0.0271 µM, a TGI [13] of 0.0769 µM and a GI50 [14] of 0.208 µM. For the same compound, the TGI [14] was 0.369 µM, the GI50 [15] was 0.139 µM and the TGI [15] was 0.449 µM. It also gave a GI50 [16] of 0.0429 µM, a TGI [16] of 0.278 µM and a GI50 [17] of 0.013 µM. The TGI [17] was 0.0262 µM, the GI50 [18] was 0.206 µM and the TGI [18] was 0.445 µM. For the same compound, the GI50 [19] was 0.0216 µM, the TGI [19] was 0.0682 µM and the GI50 [20] was under 0.014 µM. It also gave a TGI [20] of 1.23 µM, a GI50 [21] of 0.016 µM and a TGI [21] of 0.0339 µM. The GI50 [22] was 0.035 µM, the TGI [22] was 0.144 µM and the GI50 [23] was 0.028 µM. For the same compound, the TGI [23] was 0.104 µM, the GI50 [24] was 0.111 µM and the TGI [24] was 0.673 µM. For the same compound, the GI50 [25] was 0.641 µM, the TGI [25] was 3 µM and the GI50 [26] was 0.0397 µM. For the same compound, the TGI [26] was 0.187 µM, the GI50 [27] was 0.259 µM and the TGI [27] was 0.679 µM. It also gave a GI50 [28] of 0.0193 µM, a TGI [28] of 0.0484 µM and a GI50 [29] of 0.0422 µM. It also gave a TGI [29] of 1.37 µM, a GI50 [30] of 0.0143 µM and a TGI [30] of 0.037 µM. It also gave a GI50 [31] of 0.0159 µM, a TGI [31] of 0.0571 µM and a GI50 [32] of 0.181 µM. For the same compound, the TGI [32] was 0.477 µM, the GI50 [33] was 0.0338 µM and the TGI [33] was 0.13 µM. For the same compound, the GI50 [34] was 0.0325 µM, the TGI [34] was 0.195 µM and the GI50 [35] was under 0.0181 µM. The TGI [35] was 13.2 µM, the GI50 [36] was 0.0462 µM and the TGI [36] was 0.319 µM. For the same compound, the GI50 [37] was 0.0578 µM, the TGI [37] was 2.83 µM and the GI50 [38] was 0.0351 µM. For the same compound, the TGI [38] was 1.95 µM, the GI50 [39] was 0.0274 µM and the TGI [39] was 0.11 µM. For the same compound, the GI50 [40] was 0.0195 µM, the TGI [40] was 0.0867 µM and the GI50 [41] was 0.0991 µM. It also gave a TGI [41] of 0.368 µM, a GI50 [42] of 0.176 µM and a TGI [42] of 0.36 µM. It also gave a GI50 [43] of 0.029 µM, a TGI [43] of 0.19 µM and a GI50 [44] of 0.0378 µM. The TGI [44] was 0.367 µM, the GI50 [45] was 0.0316 µM and the TGI [45] was 0.118 µM. The GI50 [46] was 0.0308 µM, the TGI [46] was 0.0788 µM and the GI50 [47] was 0.249 µM. For the same compound, the TGI [47] was 0.552 µM, the GI50 [48] was 0.0199 µM and the TGI [48] was 0.0436 µM. The GI50 [49] was 0.126 µM, the TGI [49] was 0.336 µM and the GI50 [50] was 0.166 µM. It also gave a TGI [50] of 0.588 µM, a GI50 [51] of 0.086 µM and a TGI [51] of 0.237 µM. For the same compound, the GI50 [52] was 0.0214 µM, the TGI [52] was 0.173 µM and the GI50 [53] was under 0.0166 µM. The TGI [53] was 0.034 µM, the GI50 [54] was 0.0472 µM and the TGI [54] was 0.19 µM.

In the case of CC(=O)O[C@@H]1C2CCC3C(CC[C@@]4(C)C3CC[C@@H]4C(C)N(C)C)[C@@]2(C)CC[C@@H]1NC(=O)C=C(C)C (some centres not stated), the GI50 [1] is reported as 2.74 µM, the TGI [1] is reported as 8.58 µM and the GI50 [2] is reported as 1.38 µM. It also gave a TGI [2] of 2.68 µM, a GI50 [3] of 1.56 µM and a TGI [3] of 3.31 µM. The GI50 [4] was 6.89 µM, the TGI [4] was 18.7 µM and the GI50 [5] was 1.73 µM. It also gave a TGI [5] of 3.27 µM, a GI50 [6] of 1.91 µM and a TGI [6] of 3.89 µM. It also gave a GI50 [8] of 2.33 µM, a TGI [8] of 4.98 µM and a GI50 [9] of 1.73 µM. It also gave a TGI [9] of 3.66 µM, a GI50 [10] of 2.59 µM and a TGI [10] of 6.19 µM. The GI50 [11] was 2.25 µM, the TGI [11] was 5.62 µM and the GI50 [12] was 1.62 µM. For the same compound, the TGI [12] was 3.1 µM, the GI50 [55] was 4.26 µM and the TGI [55] was 17.7 µM. The GI50 [56] was 1.47 µM, the TGI [56] was 3.09 µM and the GI50 [13] was 3.61 µM. The TGI [13] was 10.3 µM, the GI50 [14] was 1.5 µM and the TGI [14] was 3.33 µM. The GI50 [15] was 1.39 µM, the TGI [15] was 3.45 µM and the GI50 [16] was 1.85 µM. The TGI [16] was 3.63 µM, the GI50 [17] was 2.32 µM and the TGI [17] was 9.78 µM. The GI50 [18] was 2.58 µM, the TGI [18] was 6.27 µM and the GI50 [19] was 4.64 µM. The TGI [19] was over 35.7 µM, the GI50 [20] was 1.1 µM and the TGI [20] was 3.15 µM. For the same compound, the GI50 [21] was 2.22 µM, the TGI [21] was 8.61 µM and the GI50 [22] was 1.92 µM. It also gave a TGI [22] of 4.26 µM, a GI50 [23] of 2.8 µM and a TGI [23] of 16.6 µM. For the same compound, the GI50 [24] was 4.76 µM, the TGI [24] was 16 µM and the GI50 [25] was 1.96 µM. It also gave a TGI [25] of 5.53 µM, a GI50 [26] of 2.35 µM and a TGI [26] of 9.31 µM. The GI50 [27] was 1.67 µM, the TGI [27] was 3.31 µM and the GI50 [28] was 6.31 µM. For the same compound, the TGI [28] was 22.5 µM, the GI50 [29] was 1.73 µM and the TGI [29] was 3.48 µM. It also gave a GI50 [30] of 1.34 µM, a TGI [30] of 2.71 µM and a GI50 [31] of 1.54 µM. The TGI [31] was 3.49 µM, the GI50 [32] was 3.4 µM and the TGI [32] was 11.3 µM. The GI50 [33] was 3.13 µM, the TGI [33] was 14 µM and the GI50 [34] was 2.03 µM. It also gave a TGI [34] of 3.96 µM, a GI50 [35] of 2.07 µM and a TGI [35] of 6.59 µM. It also gave a GI50 [36] of 3.2 µM, a TGI [36] of 12.3 µM and a GI50 [37] of 3.33 µM. The TGI [37] was 14.1 µM, the GI50 [38] was 2.2 µM and the TGI [38] was 6.82 µM. For the same compound, the GI50 [39] was 3.51 µM, the TGI [39] was 17.2 µM and the GI50 [40] was 2.24 µM. The TGI [40] was 5.19 µM, the GI50 [57] was 1.75 µM and the TGI [57] was 6.23 µM. For the same compound, the GI50 [41] was 2.66 µM, the TGI [41] was 9.5 µM and the GI50 [42] was 3.56 µM. The TGI [42] was 12.8 µM, the GI50 [43] was 4 µM and the TGI [43] was 16.4 µM. The GI50 [44] was 2.79 µM, the TGI [44] was 13.9 µM and the GI50 [45] was 2.89 µM. The TGI [45] was 6.85 µM, the GI50 [58] was 5.22 µM and the TGI [58] was 19.6 µM. For the same compound, the GI50 [46] was 1.66 µM, the TGI [46] was 10.7 µM and the GI50 [47] was 0.552 µM. The TGI [47] was 1.97 µM, the GI50 [48] was 1.46 µM and the TGI [48] was 3.21 µM. For the same compound, the GI50 [49] was 5.21 µM, the TGI [49] was 17.4 µM and the GI50 [50] was 2.33 µM. For the same compound, the TGI [50] was 5.69 µM, the GI50 [51] was 1.85 µM and the TGI [51] was 4.42 µM. For the same compound, the GI50 [52] was 1.67 µM, the TGI [52] was 4.38 µM and the GI50 [53] was 2.24 µM. It also gave a TGI [53] of 7.42 µM, a GI50 [54] of 2.42 µM and a TGI [54] of 6.73 µM.
